Measurements: ChEMBL document CHEMBL5214886, “An appraisal of anti-mycobacterial activity with structure-activity relationship of piperazine and its analogues: A review” (Eur J Med Chem, 2021)
In brackets after ≈: the same amount, converted by molar mass.

Legend:
Format in all cases: functional
[1] = test system: Mycobacterium tuberculosis; experiment: Antimycobacterial activity against multi drug resistant Mycobacterium tuberculosis 16995 assessed as reduction in bacterial growth by MABA analysis
[2] = test system: Mycobacterium tuberculosis; experiment: Antimycobacterial activity against multi drug resistant Mycobacterium tuberculosis 16833 assessed as reduction in bacterial growth by MABA analysis
[3] = test system: Mycobacterium tuberculosis; experiment: Antimycobacterial activity against multi drug resistant Mycobacterium tuberculosis assessed as reduction in bacterial growth by two-fold agar dilution method

With `O=C(NCc1ccc(N2CCN(c3ccc(F)cc3)CC2)cc1)c1ccc([N+](=O)[O-])o1` the MIC [1] was 4.22 µM (≈ 1.79 µg/mL) and the MIC [2] was 7.61 µM (≈ 3.23 µg/mL).

For `COc1ccc(N2CCN(c3ccc(CNC(=O)c4ccc([N+](=O)[O-])o4)cc3)CC2)cc1`, the MIC [1] was 9.16 µM (≈ 4 µg/mL) and the MIC [2] was 9.16 µM (≈ 4 µg/mL).

`CO[C@H]1/C=C/O[C@@]2(C)Oc3c(C)c(O)c4c(O)c(c(/C=N/N5CCN(C)CC5)c(O)c4c3C2=O)NC(=O)/C(C)=C\C=C\[C@H](C)[C@H](O)[C@@H](C)[C@@H](O)[C@@H](C)[C@H](OC(C)=O)[C@@H]1C` [RIFAMPIN] gave an MIC [1] of over 48.6 µM and an MIC [2] of over 48.6 µM.

For `NNC(=O)c1ccncc1` [ISONIAZID], the MIC [1] was 0.06 µM (≈ 0.00823 µg/mL) and the MIC [2] was 0.06 µM (≈ 0.00823 µg/mL).

`O=C(NCc1ccc(N2CCN(c3ccc(F)cc3F)CC2)cc1)c1ccc([N+](=O)[O-])o1` gave an MIC [1] of 3.19 µM (≈ 1.41 µg/mL) and an MIC [2] of 4.16 µM (≈ 1.84 µg/mL).

In the case of `O=C(/C=C(\O)c1cc(Cc2c(F)cc(F)cc2F)cn(Cc2ccccc2F)c1=O)C(=O)N1CCN(c2cccc3ccccc23)CC1`, the MIC [3] was at most 1.5 µM.
